Experimental data as given in patent US11498920B2, “4-(1H-imidazol-5-yl)-1H-pyrrolo[2, 3-b] pyridines for use in the treatment of leukaemias, lymphomas and solid tumors” (MASARYKOVA UNIVERZITA, priority 2018, dated 2022).

Tests used:
Format in all cases: cell-based
MIA-PA-CA = test: Cytotoxicity on panel of cell lines, TMRE viability (Example II.2); conditions: Homo sapiens, MIA PaCa-2, 24 hours, mean, control = 1, read-out: cell viability relative to control, MIA-PA-CA (pancreatic cancer)
Description: (§1) The leukemia and lymphoma-derived cell lines [MEC-1 cell line (derived from chronic lymphocytic leukemia—CLL), Nalm-16 (acute lymphocytic leukemia—ALL), K562 (chronic myeloid leukemia—CML), HL-60 (acute myeloid leukemia—AML), Maver-1 and Mino (mantle cell lymphoma—MCL), BL-41 (Burkitt lymphoma—BL), WSU-NHL (follicular lymphoma—FL), SUDHL (diffuse large B-cell lymphoma—DLBCL)], primary CLL cells and nonmalignant control primary cells were cultured in suspension in flasks under the following conditions: RPMI 1640 medium (Hyclone) supplemented with 10% fetal bovine serum (FBS, Gibco) and 1% penicillin/streptomycin (Life Technologies), 37° C., 5% CO2 and 95% relative humidity, with optimal culture cell density 5×10^6 cells/mL in case of primary cells and 0.5-1×10^6 cells/mL in case of cell lines. The adherent cell lines [A375 (derived from malignant melanoma), MDA-MB-231 and MCF-7 (breast cancer), MIA-PA-CA and PANC1 (pancreatic cancer), PC3 (prostate cancer), OVCAR4 (ovarian cancer) and HEPG2 (hepatocellular carcinoma)] were cultured on plates under the same conditions using RPMI1640 or DMEM medium (Gibco) according to instructions provided by the distributor (DSMZ/ATCC).
(§2) The tested cell lines were incubated with inhibitors at 30 μM concentration or corresponding amount of solvent (DMSO, Sigma Aldrich) in standard culture conditions, seeded as 10^5 cells/500 μl per well in a 24-well plate. Experiments were performed in technical duplicates and 2-3 biological repetitions per cell line. Viability of cells was assessed after 24 hours.
(§3) Relative values are presented as a mean value, showing ratio to the effect of control. Relative value <1=lower viability than control condition.

BL-41 = test: as above; conditions: Homo sapiens, 24 hours, mean, control = 1, read-out: cell viability relative to control, BL-41 (BL)
Description: as §1, §2, §3

HL60 = test: as above; conditions: Homo sapiens, HL-60, 24 hours, mean, control = 1, read-out: cell viability relative to control, HL60 (AML)
Description: as §1, §2, §3

WSU-NHL = test: as above; conditions: Homo sapiens, 24 hours, mean, control = 1, read-out: cell viability relative to control, WSU-NHL (FL)
Description: as §1, §2, §3

primary CLL = test: as above; conditions: Homo sapiens, 24 hours, mean, control = 1, read-out: cell viability relative to control, primary CLL
Description: as §1, §2, §3

OVCAR4 = test: as above; conditions: Homo sapiens, OVCAR-4, 24 hours, mean, control = 1, read-out: cell viability relative to control, OVCAR4 (ovarian cancer)
Description: as §1, §2, §3

K562 = test: as above; conditions: Homo sapiens, 24 hours, mean, control = 1, read-out: cell viability relative to control, K562 (CML)
Description: as §1, §2, §3

SUDHL = test: as above; conditions: 24 hours, mean, control = 1, read-out: cell viability relative to control, SUDHL (DLBCL)
Description: as §1, §2, §3

Maver1 = test: as above; conditions: Homo sapiens, 24 hours, mean, control = 1, read-out: cell viability relative to control, Maver1 (MCL)
Description: as §1, §2, §3

A375 = test: as above; conditions: Homo sapiens, A-375, 24 hours, mean, control = 1, read-out: cell viability relative to control, A375 (melanoma)
Description: as §1, §2, §3

HEPG2 = test: as above; conditions: Homo sapiens, 24 hours, mean, control = 1, read-out: cell viability relative to control, HEPG2 (hepatocellular carcinoma)
Description: as §1, §2, §3

MEC-1 = test: as above; conditions: Homo sapiens, MEC1, 24 hours, mean, control = 1, read-out: cell viability relative to control, MEC-1 (CLL)
Description: as §1, §2, §3

PANC1 = test: as above; conditions: Homo sapiens, PANC-1, 24 hours, mean, control = 1, read-out: cell viability relative to control, PANC1 (pancreatic cancer)
Description: as §1, §2, §3

MDA-MB-231 = test: as above; conditions: Homo sapiens, 24 hours, mean, control = 1, read-out: cell viability relative to control, MDA-MB-231 (breast cancer)
Description: as §1, §2, §3

Mino = test: as above; conditions: Homo sapiens, 24 hours, mean, control = 1, read-out: cell viability relative to control, Mino (MCL)
Description: as §1, §2, §3

Nalm16 = test: as above; conditions: 24 hours, mean, control = 1, read-out: cell viability relative to control, Nalm16 (ALL)
Description: as §1, §2, §3

PC3 = test: as above; conditions: Homo sapiens, PC-3, 24 hours, mean, control = 1, read-out: cell viability relative to control, PC3 (prostate cancer)
Description: as §1, §2, §3

primary CLL cells = test: Cytotoxicity, TMRE flow cytometry viability, primary CLL cells (Example II.1); conditions: Homo sapiens, CLL cell, 6 hours, TMRE positive cells normalized to control, ratio to PF670462, <1 = higher cytotoxicity than PF670462, read-out: Viability of cells, Compound of formula I (100 μM), relative to PF670462 (100 μM), CLL primary cells
[1] = tested on: Maver-1 cells (mantle cell lymphoma); test: Cytotoxicity, TMRE flow cytometry viability, Maver-1 cells (Example II.1); conditions: Homo sapiens, Maver1, 24 hours, TMRE positive cells normalized to control, ratio to PF670462, <1 = higher cytotoxicity than PF670462, read-out: Viability of cells, Compound of formula I (100 μM), relative to PF670462 (100 μM), Maver-1 cells (mantle cell lymphoma)
MCF-7 = test: Cytotoxicity on panel of cell lines, TMRE viability (Example II.2); conditions: Homo sapiens, MCF7, 24 hours, mean, control = 1, read-out: cell viability relative to control, MCF-7 (breast cancer)
Description: as §1, §2, §3

SMILES	viability at 30 µM (MIA-PA-CA)	viability at 30 µM (BL-41)	viability at 30 µM (HL60)	viability at 30 µM (WSU-NHL)	viability at 30 µM (primary CLL)	viability at 30 µM (OVCAR4)	viability at 30 µM (K562)	viability at 30 µM (SUDHL)	viability at 30 µM (Maver1)	viability at 30 µM (A375)	viability at 30 µM (HEPG2)	viability at 30 µM (MEC-1)	viability at 30 µM (PANC1)	viability at 30 µM (MDA-MB-231)	viability at 30 µM (Mino)	viability at 30 µM (Nalm16)	viability at 30 µM (PC3)	viability at 100 µM (primary CLL cells)	viability at 100 µM [1]	viability at 30 µM (MCF-7)
Cc1cc2c(-c3c(-c4ccc(F)cc4)ncn3C3CCCCC3)ccnc2[nH]1 [Preparative Example 39, 4-(1-cyclohexyl-4-(4-fluorophenyl)-1H-imidazol-5-yl)-2-methyl-1H-pyrrolo[2,3-b]pyridine]	56%	10%	62%	88%	48%	42%	73%	24%	2%	16%	55%	22%	44%	71%	26%	6%	29%	10%	2%	–
Cc1nc(-c2ccc(F)cc2)c(-c2ccnc3[nH]ccc23)n1C1CCCCC1 [Preparative Example 61, 4-(1-cyclohexyl-4-(4-fluorophenyl)-2-methyl-1H-imidazol-5-yl)-1H-pyrrolo[2,3-b]pyridine]	58%	22%	63%	–	70%	77%	80%	24%	52%	20%	60%	41%	81%	46%	28%	6%	71%	35%	2%	39%
Fc1ccc(-c2nc(I)n(C3CCCCC3)c2-c2ccnc3[nH]ccc23)cc1 [Preparative Example 95, 4-(1-cyclohexyl-4-(4-fluorophenyl)-2-iodo-1H-imidazol-5-yl)-1H-pyrrolo[2,3-b]pyridine]	1%	0%	2%	0%	2%	7%	1%	0%	1%	16%	5%	0%	10%	2%	0%	–	1%	2%	1%	1%
